From patent US8883410B2, “Method for determining the stability of organic methyleneamines in the presence of semicarbazide-sensitive amine oxidase” (Sanofi, priority 2007, dated 2014)

Biological target: T1, human SSAO, full-length, untagged (Homo sapiens, UniProt Q16853)
T1 construct: expressed in transfected cells; cleared NP-40 cell lysate
T1 sequence (Q16853 1-763): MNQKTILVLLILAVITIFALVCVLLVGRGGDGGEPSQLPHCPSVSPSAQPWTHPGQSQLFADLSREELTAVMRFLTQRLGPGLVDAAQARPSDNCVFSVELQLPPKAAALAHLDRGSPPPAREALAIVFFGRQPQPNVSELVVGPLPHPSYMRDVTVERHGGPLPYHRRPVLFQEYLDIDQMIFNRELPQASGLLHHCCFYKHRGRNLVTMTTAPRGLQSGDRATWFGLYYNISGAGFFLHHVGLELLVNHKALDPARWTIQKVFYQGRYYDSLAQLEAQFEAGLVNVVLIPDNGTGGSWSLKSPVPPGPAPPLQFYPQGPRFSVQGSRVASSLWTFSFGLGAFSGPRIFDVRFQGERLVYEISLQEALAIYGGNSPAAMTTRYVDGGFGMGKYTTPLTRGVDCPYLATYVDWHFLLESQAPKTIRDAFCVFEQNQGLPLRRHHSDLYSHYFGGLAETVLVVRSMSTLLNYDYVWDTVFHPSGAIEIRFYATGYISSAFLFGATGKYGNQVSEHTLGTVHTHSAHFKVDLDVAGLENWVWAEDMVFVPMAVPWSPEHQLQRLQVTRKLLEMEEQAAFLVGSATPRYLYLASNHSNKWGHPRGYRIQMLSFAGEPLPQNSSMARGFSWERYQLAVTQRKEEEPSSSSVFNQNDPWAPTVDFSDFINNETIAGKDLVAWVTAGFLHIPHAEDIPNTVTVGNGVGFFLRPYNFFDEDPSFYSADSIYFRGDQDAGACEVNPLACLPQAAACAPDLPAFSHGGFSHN
Test: Benzylamine stability in lysate of cells expressing full-length SSAO (untagged), LC/MS/MS
Format: in vitro ADME
Description: The expression constructs were prepared by cloning these PCR products into the pCDNA5-FRT-To-DEST vector (Invitrogen, Gateway System™). The forward and reverse DNA sequence of each construct was confirmed including expressed sequences and at least 100 base pairs either side of this. Stable cell lines for Flp-In CHO, Flp-In CHO T-Rex, and Flp-In HEK 293 (Invitrogen, Flp-In system™) were generated using these 6 constructs according to manufacturer's instructions. Cells were co-transfected with the regulatory vector, pOG44, and each of the pCDNA5-FRT-To-DEST constructs using Lipfectamine (Invitrogen) according to manufacturer's instructions. Thus, 18 cell lines were generated: CHO Flp-In full-length SSAO; CHO Flp-In full-length SSAO with C-terminal 6×HIS tag; CHO Flp-In T1 SSAO; CHO Flp-In T1 SSAO with C-terminal 6×HIS tag; CHO Flp-In T2 SSAO; CHO Flp-In T2 SSAO with C-terminal 6×HIS tag; CHO T-Rex Flp-In full-length SSAO; CHO T-Rex Flp-In full-length SSAO with C-terminal 6×HIS tag; CHO T-Rex Flp-In T1 SSAO; CHO T-Rex Flp-In T1 SSAO with C-terminal 6×HIS tag; CHO T-Rex Flp-In T2 SSAO; CHO Flp-In T2 SSAO with C-terminal 6×HIS tag; HEK 293 Flp-In full-length SSAO; HEK 293 Flp-In full-length SSAO with C-terminal 6×HIS tag; HEK 293 Flp-In T1 SSAO; HEK 293 Flp-In T1 SSAO with C-terminal 6×HIS tag; HEK 293 Flp-In T2 SSAO; HEK 293 Flp-In T2 SSAO with C-terminal 6×HIS tag.
Adherent CHO cells were cultured at 37° C., 5% CO2 in media containing Ham's F12, 10% fetal bovine serum, 2 mM L-glutamine, 1% Penicillin/Streptomycin, 300 μM hygromycin B. Adherent HEK 293 cells were cultured at 37° C., 5% CO2 in D-MEM (high glucose), 10% fetal bovine serum, 2 mM L-glutamine, and 200 μM hygromycin B. Stable transformants were identified by loss of zeocin resistance. Once the cells were 80% confluent, SSAO expression was induced by the addition of Tetracycline to 1 μg/mL. Following 18 hours, the cells were harvested using a trypsin treatment of 3 minutes, at room temperature. Cells were washed 3 times in phosphate buffered saline before flash freezing in liquid nitrogen.
For the preparation of cell lysate for activity testing, frozen cell pellets were resuspended in lysate buffer containing 10 mM Tris-HCl (pH 7.2), 150 mM NaCl, 1.5 mM MgCl2, 1% v/v NP-40 and incubated for 15 minutes on ice. Lysate was cleared by centrifugation 800×g for 10 minutes, 4° C. and stored in aliquots at −80° C. until use. Proteins were determined using Pierce Coomassie Protein Reagent, according to manufacturer's instructions.
For each assay run, 1 mL of cell lysate (1.5 mg/mL protein) was mixed with benzylamine to 2000 ng/mL final concentration. At each corresponding time point, […] the incubation mixture was transferred to a microcentrifuge tube (1.7 mL) and mixed with 50 μL of acetonitrile. The tubes were vortex mixed briefly to ensure complete mixing and then centrifuged at 10,000×g for 5 minutes. The supernatant was removed and 50 μL was transferred to an autosampler vial and mixed with 50 μL of water before LC/MS/MS analysis. Benzylamine remaining in the lysate was analyzed with LC/MS/MS method.
LC/MS/MS analysis was performed with a PE Sciex API 3000 mass spectrometer under the following conditions listed below and in Tables 1 and 2:
The active lysates from CHO Flp-In, CHO Flp-In T-Rex or HEK293 Flp-In expressing full-length SSAO (untagged) were subsequently tested and activity confirmed (Table 4).

NCc1ccccc1 [Benzylamine]
Benzylamine Remaining (%) (CHO Flp-In T-Rex lysate, Full-length SSAO, tag None, 0 min (Table 3)): 100% | Benzylamine Remaining (%) (CHO Flp-In T-Rex lysate, Full-length SSAO, tag None, 10 min (Table 3)): 6% | Benzylamine Remaining (%) (CHO Flp-In T-Rex lysate, Full-length SSAO, tag None, 2 h (Table 3)): 0% | Benzylamine Remaining (%) (CHO Flp-In T-Rex, full-length SSAO (untagged), 0 min, subsequent test (Table 4)): 100% | Benzylamine Remaining (%) (CHO Flp-In T-Rex, full-length SSAO (untagged), 10 min, subsequent test (Table 4)): 16% | Benzylamine Remaining (%) (CHO Flp-In T-Rex, full-length SSAO (untagged), 30 min, subsequent test (Table 4)): 1% | Benzylamine Remaining (%) (CHO Flp-In lysate, Full-length SSAO, tag None, 0 min (Table 3)): 100% | Benzylamine Remaining (%) (CHO Flp-In lysate, Full-length SSAO, tag None, 10 min (Table 3)): 1% | Benzylamine Remaining (%) (CHO Flp-In lysate, Full-length SSAO, tag None, 2 h (Table 3)): 1% | Benzylamine Remaining (%) (CHO Flp-In, full-length SSAO (untagged), 0 min, subsequent test (Table 4)): 100% | Benzylamine Remaining (%) (CHO Flp-In, full-length SSAO (untagged), 10 min, subsequent test (Table 4)): 9% | Benzylamine Remaining (%) (CHO Flp-In, full-length SSAO (untagged), 30 min, subsequent test (Table 4)): 1% | Benzylamine Remaining (%) (HEK293 Flp-In, full-length SSAO (untagged), 0 min, subsequent test (Table 4)): 100% | Benzylamine Remaining (%) (HEK293 Flp-In, full-length SSAO (untagged), 10 min, subsequent test (Table 4)): 50% | Benzylamine Remaining (%) (HEK293 Flp-In, full-length SSAO (untagged), 30 min, subsequent test (Table 4)): 9% | Benzylamine Remaining (%) (HEK293 lysate, Full-length SSAO, tag None, 0 min (Table 3)): 100% | Benzylamine Remaining (%) (HEK293 lysate, Full-length SSAO, tag None, 10 min (Table 3)): 58% | Benzylamine Remaining (%) (HEK293 lysate, Full-length SSAO, tag None, 2 h (Table 3)): 2%
